Data taken from patent US10435405B2, “Pyrazolopyridine compounds and uses thereof” (Incyte Corporation, priority 2016, dated 2019).
pKi: −log10 of the molar value.

Target: HPK1 (Homo sapiens (Human), UniProt Q92918)
Experiment: HPK1 Kinase Binding Assay
Summary of the method: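 Active HPK1 (added as 4 nM solution) was combined with compound (3-fold, 11-point series) and tracer 222 (18 nM) plus Eu-anti-GST antibody (4 nM) in 50 mM HEPES pH 7.5 with MgCl2 and DTT. After 1 h at 25 °C plates were read. Ki values were derived.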

Sequence of HPK1 (Q92918 1-346): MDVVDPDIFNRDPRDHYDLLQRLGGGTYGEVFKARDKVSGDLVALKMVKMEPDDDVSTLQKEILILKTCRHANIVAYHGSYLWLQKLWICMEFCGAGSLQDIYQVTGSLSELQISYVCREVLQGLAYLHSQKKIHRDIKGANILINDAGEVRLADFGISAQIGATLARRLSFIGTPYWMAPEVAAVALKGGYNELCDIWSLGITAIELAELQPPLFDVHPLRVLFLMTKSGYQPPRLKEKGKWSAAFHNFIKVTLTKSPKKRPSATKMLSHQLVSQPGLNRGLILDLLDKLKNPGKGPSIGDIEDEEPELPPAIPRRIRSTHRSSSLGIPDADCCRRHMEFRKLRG

Compound	pKi
Cc1cc(C2CCCN2)cc(F)c1-c1cc2c(-c3cnn(C)c3)n[nH]c2cn1 (single isomer, unassigned) [Example 171, 5-(2-Fluoro-6-methyl-4-(pyrrolidin-2-yl)phenyl)-3-(1-methyl-1H-pyrazol-4-yl)-1H-pyrazolo[3,4-c]pyridine]	≥ 7.00
Cc1cc(C2CCCCN2)cc(F)c1-c1cc2c(-c3cnn(C)c3)n[nH]c2cn1 (single isomer, unassigned) [Example 174, 5-(2-Fluoro-6-methyl-4-(piperidin-2-yl)phenyl)-3-(1-methyl-1H-pyrazol-4-yl)-1H-pyrazolo[3,4-c]pyridine]	≥ 7.00
CNCc1cc(F)c(-c2cc3c(-c4ccc(N5CCN(C(C)=O)CC5)cn4)n[nH]c3cn2)c(OC(F)F)c1 [Example 193, 1-(4-(6-(5-(2-(Difluoromethoxy)-6-fluoro-4-((methylamino)methyl)phenyl)-1H-pyrazolo[3,4-c]pyridin-3-yl)pyridin-3-yl)piperazin-1-yl)ethanone]	≥ 7.00
COc1cccc(F)c1-c1cc2c(NC(=O)c3ccc(C)cc3)n[nH]c2cn1 [Example 2, N-(5-(2-Fluoro-6-methoxyphenyl)-1H-pyrazolo[3,4-c]pyridin-3-yl)-4-methylbenzamide]	≥ 7.00
COc1cccc(F)c1-c1cc2c(NC(=O)c3cccc(N4CCN(S(C)(=O)=O)CC4)c3)n[nH]c2cn1 [Example 22, N-(5-(2-Fluoro-6-methoxyphenyl)-1H-pyrazolo[3,4-c]pyridin-3-yl)-3-(4-(methylsulfonyl)piperazin-1-yl)benzamide]	≥ 7.00
CNCc1cc(F)c(-c2cc3c(-c4ccc(N5CCC(F)C5)cn4)n[nH]c3cn2)c(F)c1 (centres unmarked) [Example 167, 1-(3,5-Difluoro-4-(3-(5-(3-fluoropyrrolidin-1-yl)pyridin-2-yl)-1H-pyrazolo[3,4-c]pyridin-5-yl)phenyl)-N-methylmethanamine]	≥ 7.00
Cn1cc(-c2n[nH]c3cnc(-c4c(F)cc(NC(=O)CN5CC6(CCOCC6)C5)cc4F)cc23)cn1 [Example 69, N-(3,5-Difluoro-4-(3-(1-methyl-1H-pyrazol-4-yl)-1H-pyrazolo[3,4-c]pyridin-5-yl)phenyl)-2-(7-oxa-2-azaspiro[3.5]nonan-2-yl)acetamide]	≥ 7.00
CNCc1cc(C)c(-c2cc3c(-c4cnn(C)c4)n[nH]c3cn2)c(F)c1 [Example 168, 1-(3-Fluoro-5-methyl-4-(3-(1-methyl-1H-pyrazol-4-yl)-1H-pyrazolo[3,4-c]pyridin-5-yl)phenyl)-N-methylmethanamine]	≥ 7.00
CCOc1cccc(F)c1-c1cc2c(-c3ccc(N4CCN(C)CC4)cc3)n[nH]c2cn1 [Example 51, 5-(2-Ethoxy-6-fluorophenyl)-3-(4-(4-methylpiperazin-1-yl)phenyl)-1H-pyrazolo[3,4-c]pyridine]	≥ 7.00
Cn1cc(-c2n[nH]c3cnc(-c4c(F)cc(OC5CCOCC5)cc4F)cc23)cn1 [Example 107, 5-(2,6-Difluoro-4-(tetrahydro-2H-pyran-4-yloxy)phenyl)-3-(1-methyl-1H-pyrazol-4-yl)-1H-pyrazolo[3,4-c]pyridine]	≥ 7.00
CN(C)c1ccc(F)c(-c2cc3c(-c4cnn(C)c4)n[nH]c3cn2)c1F [Example 62, 2,4-Difluoro-N,N-dimethyl-3-(3-(1-methyl-1H-pyrazol-4-yl)-1H-pyrazolo[3,4-c]pyridin-5-yl)aniline]	≥ 7.00
Cn1cc(-c2n[nH]c3cnc(-c4c(F)cc5c(c4F)C(N)CC5)c(F)c23)cn1 (centres unmarked) [Example 216, 5,7-Difluoro-6-(4-fluoro-3-(1-methyl-1H-pyrazol-4-yl)-1H-pyrazolo[3,4-c]pyridin-5-yl)-2,3-dihydro-1H-inden-1-amine]	≥ 7.00
Cc1cc(CNCC#N)cc(F)c1-c1cc2c(-c3cnn(C)c3)n[nH]c2cn1 [Example 188, 2-(3-Fluoro-5-methyl-4-(3-(1-methyl-1H-pyrazol-4-yl)-1H-pyrazolo[3,4-c]pyridin-5-yl)benzylamino)acetonitrile]	≥ 7.00
CNCc1ccc(C)c(-c2cc3c(-c4cnn(C)c4)n[nH]c3cn2)c1 [Example 87, N-Methyl-1-(4-methyl-3-(3-(1-methyl-1H-pyrazol-4-yl)-1H-pyrazolo[3,4-c]pyridin-5-yl)phenyl)methanamine]	≥ 7.00
CNC1CCc2c1cc(C)c(-c1cc3c(-c4cnn(C)c4)n[nH]c3cn1)c2F (single isomer, unassigned) [Example 239, 4-Fluoro-N,6-dimethyl-5-(3-(1-methyl-1H-pyrazol-4-yl)-1H-pyrazolo[3,4-c]pyridin-5-yl)-2,3-dihydro-1H-inden-1-amine]	≥ 7.00
COC(=O)N1CCN(c2ccc(C(=O)Nc3n[nH]c4cnc(-c5c(F)cc(CNC(C)C)cc5F)cc34)cc2)CC1 [Example 147, Methyl 4-(4-(5-(2,6-difluoro-4-((isopropylamino)methyl)phenyl)-1H-pyrazolo[3,4-c]pyridin-3-ylcarbamoyl)phenyl)piperazine-1-carboxylate]	≥ 7.00
Cn1cc(-c2n[nH]c3cnc(-c4c(F)cc(NC(=O)CN5CCC5)cc4OC(F)F)cc23)cn1 [Example 72, 2-(Azetidin-1-yl)-N-(3-(difluoromethoxy)-5-fluoro-4-(3-(1-methyl-1H-pyrazol-4-yl)-1H-pyrazolo[3,4-c]pyridin-5-yl)phenyl)acetamide]	≥ 7.00
COc1cccc(F)c1-c1cc2c(NCc3ccc(N4CCN(C)CC4)cc3)n[nH]c2cn1 [Example 41, 5-(2-Fluoro-6-methoxyphenyl)-N-(4-(4-methylpiperazin-1-yl)benzyl)-1H-pyrazolo[3,4-c]pyridin-3-amine]	5.70 to 6.30

More lines, now with the values ahead:

pKi	Compound
≥ 7.00	CO[C@H]1C[C@H](NCc2ccc(F)c(-c3cc4c(-c5cnn(C)c5)n[nH]c4cn3)c2C)C1 [Example 222, trans-N-(4-Fluoro-2-methyl-3-(3-(1-methyl-1H-pyrazol-4-yl)-1H-pyrazolo[3,4-c]pyridin-5-yl)benzyl)-3-methoxycyclobutanamine]
≥ 7.00	Cn1cc(-c2n[nH]c3cnc(-c4cccc(CNC5CCOCC5)c4C(F)(F)F)cc23)cn1 [Example 90, N-(3-(3-(1-Methyl-1H-pyrazol-4-yl)-1H-pyrazolo[3,4-c]pyridin-5-yl)-2-(trifluoromethyl)benzyl)tetrahydro-2H-pyran-4-amine]
≥ 7.00	Cc1cc(NC(=O)CN(C)C)cc(Cl)c1-c1cc2c(-c3cnn(C)c3)n[nH]c2cn1 [Example 78, N-(3-Chloro-5-methyl-4-(3-(1-methyl-1H-pyrazol-4-yl)-1H-pyrazolo[3,4-c]pyridin-5-yl)phenyl)-2-(dimethylamino)acetamide]
≥ 7.00	Cc1cc(C2CCCN2C)cc(F)c1-c1cc2c(-c3cnn(C)c3)n[nH]c2cn1 (centres unmarked) [Example 173, 5-(2-Fluoro-6-methyl-4-(1-methylpyrrolidin-2-yl)phenyl)-3-(1-methyl-1H-pyrazol-4-yl)-1H-pyrazolo[3,4-c]pyridine]
≥ 7.00	Cn1cc(-c2n[nH]c3cnc(-c4c(F)cc(NC(=O)CN5CCCC5)cc4Cl)cc23)cn1 [Example 73, N-(3-Chloro-5-fluoro-4-(3-(1-methyl-1H-pyrazol-4-yl)-1H-pyrazolo[3,4-c]pyridin-5-yl)phenyl)-2-(pyrrolidin-1-yl)acetamide]
≥ 7.00	Cn1cc(-c2n[nH]c3cnc(-c4c(F)ccc5c4CCCC5N)cc23)cn1 (centres unmarked) [Example 210, 6-Fluoro-5-(3-(1-methyl-1H-pyrazol-4-yl)-1H-pyrazolo[3,4-c]pyridin-5-yl)-1,2,3,4-tetrahydronaphthalen-1-amine]
≥ 7.00	Cc1c(CNCC2(C)CC2)ccc(F)c1-c1cc2c(-c3cnn(C)c3)n[nH]c2cn1 [Example 224, N-(4-Fluoro-2-methyl-3-(3-(1-methyl-1H-pyrazol-4-yl)-1H-pyrazolo[3,4-c]pyridin-5-yl)benzyl)-1-(1-methylcyclopropyl)methanamine]
≥ 7.00	COC(=O)N1CCN(c2ccc(C(=O)Nc3n[nH]c4cnc(-c5c(F)cc(CNC(C)C)cc5F)cc34)c(F)c2)CC1 [Example 148, Methyl 4-(4-(5-(2,6-difluoro-4-((isopropylamino)methyl)phenyl)-1H-pyrazolo[3,4-c]pyridin-3-ylcarbamoyl)-3-fluorophenyl)piperazine-1-carboxylate]
≥ 7.00	COCCNC(=O)c1cc(F)c(-c2cc3c(-c4cnn(C)c4)n[nH]c3cn2)c(F)c1 [Example 57, 3,5-Difluoro-N-(2-methoxyethyl)-4-(3-(1-methyl-1H-pyrazol-4-yl)-1H-pyrazolo[3,4-c]pyridin-5-yl)benzamide]
≥ 7.00	CC(C)NCc1ccc(F)c(-c2cc3c(-c4cnn(C)c4)n[nH]c3cn2)c1F [Example 128, N-(2,4-Difluoro-3-(3-(1-methyl-1H-pyrazol-4-yl)-1H-pyrazolo[3,4-c]pyridin-5-yl)benzyl)propan-2-amine]
≥ 7.00	CN1CCN(c2ccc(-c3n[nH]c4cnc(-c5c(Cl)cccc5C(F)(F)F)cc34)cc2)CC1 [Example 50, 5-(2-Chloro-6-(trifluoromethyl)phenyl)-3-(4-(4-methylpiperazin-1-yl)phenyl)-1H-pyrazolo[3,4-c]pyridine]
≥ 7.00	CNC1CCc2cc(F)c(-c3ncc4[nH]nc(-c5cnn(C)c5)c4c3OC)c(F)c2C1 (centres unmarked) [Example 214, 6,8-Difluoro-7-(4-methoxy-3-(1-methyl-1H-pyrazol-4-yl)-1H-pyrazolo[3,4-c]pyridin-5-yl)-N-methyl-1,2,3,4-tetrahydronaphthalen-2-amine]
≥ 7.00	CCNCc1cc(F)c(-c2cc3c(NC(=O)c4ccc(N5CCN(C)CC5)cc4)n[nH]c3cn2)c(C(F)(F)F)c1 [Example 154, N-(5-(4-((Ethylamino)methyl)-2-fluoro-6-(trifluoromethyl)phenyl)-1H-pyrazolo[3,4-c]pyridin-3-yl)-4-(4-methylpiperazin-1-yl)benzamide]
≥ 7.00	CNCc1cc(F)c(-c2cc3c(-c4ccc(N5CCC(O)CC5)nc4)n[nH]c3cn2)c(F)c1 [Example 166, 1-(5-(5-(2,6-Difluoro-4-((methylamino)methyl)phenyl)-1H-pyrazolo[3,4-c]pyridin-3-yl)pyridin-2-yl)piperidin-4-ol]
